# Measured values published in PMC11672637, “7-O-Carboxylic Acid-Substituted 3-O-Alkyl Difluoroquercetin; An Aztreonam-Potentiating Agent Against Carbapenemase-Producing Pseudomonas aeruginosa Through Simultaneous Inhibition of Metallo-β-Lactamase and Efflux Pump” (Antibiotics, 2024).
# Like-named read-outs stand apart in the source and are kept apart here.
# Columns and labels:
# PA-038, blaNDM = assay: MIC / checkerboard with ATM; type: cell-based, P. aeruginosa; settings: for MIC: Pseudomonas aeruginosa, read-out: MIC of ATM with 5, PA-038
# PA-044, blaNDM = assay: MIC / checkerboard with ATM; type: cell-based, P. aeruginosa; settings: for MIC: Pseudomonas aeruginosa, read-out: MIC of ATM with 5, PA-044
# PA-037, blaIMP/NDM = assay: MIC / checkerboard with ATM; type: cell-based, P. aeruginosa; settings: for MIC: Pseudomonas aeruginosa, read-out: MIC of ATM with 5, PA-037
# PA-042, blaIMP/NDM = assay: MIC / checkerboard with ATM; type: cell-based, P. aeruginosa; settings: for MIC: Pseudomonas aeruginosa, read-out: MIC of ATM with 5, PA-042
# [1] = test system: wild-type P. aeruginosa (ATCC 27853); assay: Time–kill assay; type: cell-based; settings: for Log CFU/mL, ATM + 5: 24 h
# Experimental: (§1) Aliquots (50 μL) were taken from the incubation mixture at regular time intervals (t = 0, 3, 6, and 24 h), serially diluted in 0.85% NaCl solution, and plated on BAP. Bacterial colonies were counted, and the data are presented as the means of at least three independent experiments.
# PA-003, blaVIM = assay: Time–kill assay; type: cell-based, P. aeruginosa; settings: for Log CFU/mL, ATM + 5: 24 h
# Experimental: as §1
# PA-014, blaGES = assay: Time–kill assay; type: cell-based, P. aeruginosa; settings: for Log CFU/mL, ATM + 5: 24 h
# Experimental: as §1
smiles,measurement,setting,value
"CC(C)(C)CCOc1c(-c2ccc(F)c(F)c2)oc2cc(OCC(=O)O)cc(O)c2c1=O [Compound 5, 2-((2-(3,4-Difluorophenyl)-3-(3,3-dimethylbutoxy)-5-hydroxy-4-oxo-4H-chromen-7-yl)oxy)acetic Acid]",Lowest FICI (ATM/5),"PA-038, blaNDM; PA-038",0.27
same,Minimum concentration of 5 to make sensitive to ATM,"PA-038, blaNDM; PA-038",4 mg/L
same,Susceptibility to ATM,"PA-038, blaNDM; PA-038, ATM/5","S (S (sensitive, MIC ≤ 8 mg/L))"
same,FD (fold decrease in MIC of ATM with 5),"PA-038, blaNDM; PA-038, lowest-FICI combination",4
same,MIC,"PA-038, blaNDM; 5 at 1 mg/L",16 µg/mL
same,MIC,"PA-038, blaNDM; 5 at 2 mg/L",16 µg/mL
same,MIC,"PA-038, blaNDM; 5 at 4 mg/L",8 µg/mL
same,MIC,"PA-038, blaNDM; 5 at 8 mg/L",4 µg/mL
same,MIC,"PA-038, blaNDM; 5 at 16 mg/L",4 µg/mL
same,MIC,"PA-038, blaNDM; 5 at 32 mg/L",4 µg/mL
same,MIC,"PA-038, blaNDM; 5 at 64 mg/L",4 µg/mL
same,Activity (FICI class),"PA-044, blaNDM; PA-044","S (S (Synergy, FICI ≤ 0.5))"
same,Concentrations of ATM and 5 at lowest FICI (ATM/5),"PA-044, blaNDM; PA-044",4/8
same,Lowest FICI (ATM/5),"PA-044, blaNDM; PA-044",0.27
same,Minimum concentration of 5 to make sensitive to ATM,"PA-044, blaNDM; PA-044",4 mg/L
same,Susceptibility to ATM,"PA-044, blaNDM; PA-044, ATM/5","S (S (sensitive, MIC ≤ 8 mg/L))"
same,FD (fold decrease in MIC of ATM with 5),"PA-044, blaNDM; PA-044, lowest-FICI combination",4
same,MIC,"PA-044, blaNDM; 5 at 1 mg/L",16 µg/mL
same,MIC,"PA-044, blaNDM; 5 at 2 mg/L",16 µg/mL
same,MIC,"PA-044, blaNDM; 5 at 4 mg/L",8 µg/mL
same,MIC,"PA-044, blaNDM; 5 at 8 mg/L",4 µg/mL
same,MIC,"PA-044, blaNDM; 5 at 16 mg/L",4 µg/mL
same,MIC,"PA-044, blaNDM; 5 at 32 mg/L",4 µg/mL
same,MIC,"PA-044, blaNDM; 5 at 64 mg/L",4 µg/mL
same,Activity (FICI class),"PA-037, blaIMP/NDM; PA-037","S (S (Synergy, FICI ≤ 0.5))"
same,Concentrations of ATM and 5 at lowest FICI (ATM/5),"PA-037, blaIMP/NDM; PA-037",1/8
same,Lowest FICI (ATM/5),"PA-037, blaIMP/NDM; PA-037",0.27
same,Susceptibility to ATM,"PA-037, blaIMP/NDM; PA-037, ATM/5","S (S (sensitive, MIC ≤ 8 mg/L))"
same,FD (fold decrease in MIC of ATM with 5),"PA-037, blaIMP/NDM; PA-037, lowest-FICI combination",4
same,MIC,"PA-037, blaIMP/NDM; 5 at 1 mg/L",2 µg/mL
same,MIC,"PA-037, blaIMP/NDM; 5 at 2 mg/L",2 µg/mL
same,MIC,"PA-037, blaIMP/NDM; 5 at 4 mg/L",2 µg/mL
same,MIC,"PA-037, blaIMP/NDM; 5 at 8 mg/L",1 µg/mL
same,MIC,"PA-037, blaIMP/NDM; 5 at 16 mg/L",1 µg/mL
same,MIC,"PA-037, blaIMP/NDM; 5 at 32 mg/L",1 µg/mL
same,MIC,"PA-037, blaIMP/NDM; 5 at 64 mg/L",1 µg/mL
same,Activity (FICI class),"PA-042, blaIMP/NDM; PA-042","I (I (indifference, 0.5 < FICI ≤ 4))"
same,Concentrations of ATM and 5 at lowest FICI (ATM/5),"PA-042, blaIMP/NDM; PA-042",1/4
same,Lowest FICI (ATM/5),"PA-042, blaIMP/NDM; PA-042",0.51
same,Susceptibility to ATM,"PA-042, blaIMP/NDM; PA-042, ATM/5","S (S (sensitive, MIC ≤ 8 mg/L))"
same,FD (fold decrease in MIC of ATM with 5),"PA-042, blaIMP/NDM; PA-042, lowest-FICI combination",2
same,MIC,"PA-042, blaIMP/NDM; 5 at 1 mg/L",2 µg/mL
same,MIC,"PA-042, blaIMP/NDM; 5 at 2 mg/L",2 µg/mL
same,MIC,"PA-042, blaIMP/NDM; 5 at 4 mg/L",1 µg/mL
same,MIC,"PA-042, blaIMP/NDM; 5 at 8 mg/L",1 µg/mL
same,MIC,"PA-042, blaIMP/NDM; 5 at 16 mg/L",1 µg/mL
same,MIC,"PA-042, blaIMP/NDM; 5 at 32 mg/L",1 µg/mL
same,MIC,"PA-042, blaIMP/NDM; 5 at 64 mg/L",1 µg/mL
same,"Diff. (ATM + 5, 24 h vs initial inoculum)",[1]; ATM 1/2 MIC + 5 at 8 mg/L,−0.04 Log CFU/mL
same,Diff. (ATM + 5 vs ATM only),[1]; ATM 1/2 MIC + 5 at 8 mg/L,−3.51 Log CFU/mL
same,"Synergistic activity, interpretation",[1]; ATM 1/2 MIC + 5 at 8 mg/L,Synergy (a ≥ 2 log10 decrease in CFU/mL for the combination of ATM and 5 compared to ATM alone after 24 h of incubation)
same,"Log CFU/mL, ATM + 5",[1]; ATM 1/2 MIC + 5 at 8 mg/L,5.80 Log CFU/mL
same,"Diff. (ATM + 5, 24 h vs initial inoculum)",[1]; ATM 1/4 MIC + 5 at 8 mg/L,−0.04 Log CFU/mL
same,Diff. (ATM + 5 vs ATM only),[1]; ATM 1/4 MIC + 5 at 8 mg/L,−3.77 Log CFU/mL
same,"Synergistic activity, interpretation",[1]; ATM 1/4 MIC + 5 at 8 mg/L,Synergy (a ≥ 2 log10 decrease in CFU/mL for the combination of ATM and 5 compared to ATM alone after 24 h of incubation)
same,"Log CFU/mL, ATM + 5",[1]; ATM 1/4 MIC + 5 at 8 mg/L,5.80 Log CFU/mL
same,"Diff. (ATM + 5, 24 h vs initial inoculum)",[1]; ATM 1 MIC + 5 at 8 mg/L,−5.57 Log CFU/mL
same,Diff. (ATM + 5 vs ATM only),[1]; ATM 1 MIC + 5 at 8 mg/L,−7.75 Log CFU/mL
same,"Synergistic activity, interpretation",[1]; ATM 1 MIC + 5 at 8 mg/L,Synergy (a ≥ 2 log10 decrease in CFU/mL for the combination of ATM and 5 compared to ATM alone after 24 h of incubation)
same,"Log CFU/mL, ATM + 5",[1]; ATM 1 MIC + 5 at 8 mg/L,0.27 Log CFU/mL
same,"Diff. (ATM + 5, 24 h vs initial inoculum)",[1]; ATM 2 MIC + 5 at 8 mg/L,−5.84 Log CFU/mL
same,Diff. (ATM + 5 vs ATM only),[1]; ATM 2 MIC + 5 at 8 mg/L,−0.17 Log CFU/mL
same,"Log CFU/mL, ATM + 5",[1]; ATM 2 MIC + 5 at 8 mg/L,0.00 Log CFU/mL
same,"Diff. (ATM + 5, 24 h vs initial inoculum)","PA-003, blaVIM; ATM 1/2 MIC + 5 at 8 mg/L",4.11 Log CFU/mL
same,Diff. (ATM + 5 vs ATM only),"PA-003, blaVIM; ATM 1/2 MIC + 5 at 8 mg/L",−0.04 Log CFU/mL
same,"Log CFU/mL, ATM + 5","PA-003, blaVIM; ATM 1/2 MIC + 5 at 8 mg/L",9.84 Log CFU/mL
same,"Diff. (ATM + 5, 24 h vs initial inoculum)","PA-003, blaVIM; ATM 1/4 MIC + 5 at 8 mg/L",4.35 Log CFU/mL
same,Diff. (ATM + 5 vs ATM only),"PA-003, blaVIM; ATM 1/4 MIC + 5 at 8 mg/L",−0.1 Log CFU/mL
same,"Log CFU/mL, ATM + 5","PA-003, blaVIM; ATM 1/4 MIC + 5 at 8 mg/L",10.08 Log CFU/mL
same,"Diff. (ATM + 5, 24 h vs initial inoculum)","PA-003, blaVIM; ATM 1 MIC + 5 at 8 mg/L",−5.5 Log CFU/mL
same,Diff. (ATM + 5 vs ATM only),"PA-003, blaVIM; ATM 1 MIC + 5 at 8 mg/L",−8.9 Log CFU/mL
same,"Synergistic activity, interpretation","PA-003, blaVIM; ATM 1 MIC + 5 at 8 mg/L",Synergy (a ≥ 2 log10 decrease in CFU/mL for the combination of ATM and 5 compared to ATM alone after 24 h of incubation)
same,"Log CFU/mL, ATM + 5","PA-003, blaVIM; ATM 1 MIC + 5 at 8 mg/L",0.23 Log CFU/mL
same,"Diff. (ATM + 5, 24 h vs initial inoculum)","PA-003, blaVIM; ATM 2 MIC + 5 at 8 mg/L",−5.73 Log CFU/mL
same,Diff. (ATM + 5 vs ATM only),"PA-003, blaVIM; ATM 2 MIC + 5 at 8 mg/L",−6.4 Log CFU/mL
same,"Synergistic activity, interpretation","PA-003, blaVIM; ATM 2 MIC + 5 at 8 mg/L",Synergy (a ≥ 2 log10 decrease in CFU/mL for the combination of ATM and 5 compared to ATM alone after 24 h of incubation)
same,"Log CFU/mL, ATM + 5","PA-003, blaVIM; ATM 2 MIC + 5 at 8 mg/L",0.00 Log CFU/mL
same,"Diff. (ATM + 5, 24 h vs initial inoculum)","PA-014, blaGES; ATM 1/2 MIC + 5 at 8 mg/L",1.65 Log CFU/mL
same,Diff. (ATM + 5 vs ATM only),"PA-014, blaGES; ATM 1/2 MIC + 5 at 8 mg/L",−2.23 Log CFU/mL
same,"Synergistic activity, interpretation","PA-014, blaGES; ATM 1/2 MIC + 5 at 8 mg/L",Synergy (a ≥ 2 log10 decrease in CFU/mL for the combination of ATM and 5 compared to ATM alone after 24 h of incubation)
same,"Log CFU/mL, ATM + 5","PA-014, blaGES; ATM 1/2 MIC + 5 at 8 mg/L",6.60 Log CFU/mL
same,"Diff. (ATM + 5, 24 h vs initial inoculum)","PA-014, blaGES; ATM 1/4 MIC + 5 at 8 mg/L",3.88 Log CFU/mL
same,Diff. (ATM + 5 vs ATM only),"PA-014, blaGES; ATM 1/4 MIC + 5 at 8 mg/L",−0.5 Log CFU/mL
same,"Log CFU/mL, ATM + 5","PA-014, blaGES; ATM 1/4 MIC + 5 at 8 mg/L",8.83 Log CFU/mL
same,"Diff. (ATM + 5, 24 h vs initial inoculum)","PA-014, blaGES; ATM 1 MIC + 5 at 8 mg/L",−2.32 Log CFU/mL
same,Diff. (ATM + 5 vs ATM only),"PA-014, blaGES; ATM 1 MIC + 5 at 8 mg/L",−5.05 Log CFU/mL
same,"Synergistic activity, interpretation","PA-014, blaGES; ATM 1 MIC + 5 at 8 mg/L",Synergy (a ≥ 2 log10 decrease in CFU/mL for the combination of ATM and 5 compared to ATM alone after 24 h of incubation)
same,"Log CFU/mL, ATM + 5","PA-014, blaGES; ATM 1 MIC + 5 at 8 mg/L",2.63 Log CFU/mL
same,"Diff. (ATM + 5, 24 h vs initial inoculum)","PA-014, blaGES; ATM 2 MIC + 5 at 8 mg/L",−4.8 Log CFU/mL
same,Diff. (ATM + 5 vs ATM only),"PA-014, blaGES; ATM 2 MIC + 5 at 8 mg/L",−2.3 Log CFU/mL
same,"Synergistic activity, interpretation","PA-014, blaGES; ATM 2 MIC + 5 at 8 mg/L",Synergy (a ≥ 2 log10 decrease in CFU/mL for the combination of ATM and 5 compared to ATM alone after 24 h of incubation)
same,"Log CFU/mL, ATM + 5","PA-014, blaGES; ATM 2 MIC + 5 at 8 mg/L",0.15 Log CFU/mL
